{"source": "ChEMBL document CHEMBL1128763", "about": "“Synthesis of 2-substituted d-tryptophan-containing peptide derivatives with endothelin receptor antagonist activity” (Bioorg Med Chem Lett, 1995)", "key": {"[1]": {"molecular_target": "T1, Endothelin receptor type B (Homo sapiens, UniProt P24530)", "T1 sequence (P24530 whole entry)": "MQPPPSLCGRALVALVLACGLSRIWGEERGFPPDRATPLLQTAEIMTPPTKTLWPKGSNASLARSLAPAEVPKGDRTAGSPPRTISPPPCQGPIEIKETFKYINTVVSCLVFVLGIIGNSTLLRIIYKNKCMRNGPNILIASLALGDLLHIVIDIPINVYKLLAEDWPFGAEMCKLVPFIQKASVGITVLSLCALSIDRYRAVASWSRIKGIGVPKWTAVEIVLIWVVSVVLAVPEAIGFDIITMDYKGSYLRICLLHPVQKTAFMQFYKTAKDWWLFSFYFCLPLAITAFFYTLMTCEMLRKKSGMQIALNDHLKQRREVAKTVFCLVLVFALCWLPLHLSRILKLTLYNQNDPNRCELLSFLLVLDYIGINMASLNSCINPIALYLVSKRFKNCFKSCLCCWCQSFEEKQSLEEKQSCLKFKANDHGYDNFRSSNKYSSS", "assay": "Functional inhibition of ET-1 induced [Ca2+] increase in human Girardi heart (hGH) cells, which express Endothelin B receptor"}, "Endothelin-1 receptor [2]": {"molecular_target": "T2, Endothelin-1 receptor (Homo sapiens, UniProt P25101)", "T2 sequence (P25101 whole entry)": "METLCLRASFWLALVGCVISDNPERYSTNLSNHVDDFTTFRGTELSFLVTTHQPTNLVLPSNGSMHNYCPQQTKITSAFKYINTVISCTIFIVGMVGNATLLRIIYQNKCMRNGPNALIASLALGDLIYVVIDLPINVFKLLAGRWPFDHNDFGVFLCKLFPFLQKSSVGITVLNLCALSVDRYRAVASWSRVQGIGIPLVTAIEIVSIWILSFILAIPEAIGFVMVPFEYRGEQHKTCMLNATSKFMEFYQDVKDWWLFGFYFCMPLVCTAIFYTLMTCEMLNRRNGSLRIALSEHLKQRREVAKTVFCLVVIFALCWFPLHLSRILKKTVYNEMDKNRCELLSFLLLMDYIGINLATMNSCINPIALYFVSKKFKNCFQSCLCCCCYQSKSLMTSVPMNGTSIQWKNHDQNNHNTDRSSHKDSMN", "assay": "Functional inhibition of ET-1 induced [Ca2+] increase in human neuroblastoma-derived SK-N-MC cells, which express Endothelin A receptor", "assay_type": "cell-based"}, "Endothelin-1 receptor [3]": {"molecular_target": "T3, Endothelin-1 receptor (Sus scrofa, UniProt Q29010)", "T3 sequence (Q29010 whole entry)": "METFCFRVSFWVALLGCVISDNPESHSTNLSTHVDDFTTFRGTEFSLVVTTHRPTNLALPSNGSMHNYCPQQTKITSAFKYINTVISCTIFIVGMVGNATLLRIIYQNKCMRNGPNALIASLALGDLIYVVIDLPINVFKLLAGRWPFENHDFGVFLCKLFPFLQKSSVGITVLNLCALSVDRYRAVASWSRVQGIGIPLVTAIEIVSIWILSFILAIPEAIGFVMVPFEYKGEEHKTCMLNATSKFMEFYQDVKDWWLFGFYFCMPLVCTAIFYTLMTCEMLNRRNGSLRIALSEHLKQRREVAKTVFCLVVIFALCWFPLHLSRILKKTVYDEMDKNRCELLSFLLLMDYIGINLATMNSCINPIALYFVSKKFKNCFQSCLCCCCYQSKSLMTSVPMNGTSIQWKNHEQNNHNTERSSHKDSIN", "assay": "Inhibitory activity against 125 I-labeled ET-1 binding to Endothelin A receptor in porcine aortic smooth muscle membranes."}, "[4]": {"molecular_target": "T4, Endothelin receptor type B (Sus scrofa, UniProt P35463)", "T4 sequence (P35463 whole entry)": "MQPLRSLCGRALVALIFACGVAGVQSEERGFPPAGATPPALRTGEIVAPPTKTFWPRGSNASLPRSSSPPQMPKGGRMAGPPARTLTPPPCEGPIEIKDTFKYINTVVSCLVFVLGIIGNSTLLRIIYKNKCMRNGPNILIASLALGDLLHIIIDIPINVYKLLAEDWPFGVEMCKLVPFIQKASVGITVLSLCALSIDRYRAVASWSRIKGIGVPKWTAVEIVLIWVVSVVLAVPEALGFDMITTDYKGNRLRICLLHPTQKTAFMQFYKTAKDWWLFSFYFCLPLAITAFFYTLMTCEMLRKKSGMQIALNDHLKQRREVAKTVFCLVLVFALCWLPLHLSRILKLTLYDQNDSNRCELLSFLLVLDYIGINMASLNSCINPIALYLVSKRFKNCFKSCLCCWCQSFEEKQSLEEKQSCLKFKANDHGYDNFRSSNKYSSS", "assay": "Inhibitory activity against 125 I-labeled ET-1 binding to Endothelin B receptor in porcine cerebellum membranes", "assay_type": "cell membranes, Membrane"}}}
{"smiles": "CCCC[C@@H](NC(=O)[C@@H](Cc1c(Br)[nH]c2ccccc12)NC(=O)[C@@H](NC(=O)N1[C@H](C)CCC[C@@H]1C)C1CC1)C(=O)O", "values": [{"measurement": "IC50", "setting": "[1]", "value": 0.8, "unit": "nM"}, {"measurement": "IC50", "setting": "Endothelin-1 receptor [2]", "value": 16, "unit": "nM"}]}
{"smiles": "CCCC[C@@H](NC(=O)[C@@H](Cc1cn(C(=O)OC)c2ccccc12)NC(=O)[C@H](CC(C)(C)C)NC(=O)N1[C@H](C)CCC[C@@H]1C)C(=O)O", "values": [{"measurement": "IC50", "setting": "Endothelin-1 receptor [3]", "value": 280, "unit": "nM"}, {"measurement": "IC50", "setting": "[4]", "value": 1.2, "unit": "nM"}]}
{"smiles": "CCCC[C@@H](NC(=O)[C@@H](Cc1c(C#N)[nH]c2ccccc12)NC(=O)[C@@H](NC(=O)N1[C@H](C)CCC[C@@H]1C)C(C)C)C(=O)O", "values": [{"measurement": "IC50", "setting": "[1]", "value": 4, "unit": "nM"}, {"measurement": "IC50", "setting": "Endothelin-1 receptor [2]", "value": 6100, "unit": "nM"}]}
{"smiles": "CC(C)C[C@@H]1NC(=O)[C@@H](C(C)C)NC(=O)C2CCCN2C(=O)[C@@H](CC(=O)O)NC(=O)[C@@H](Cc2c[nH]c3ccccc23)NC1=O", "note": "(single isomer, unassigned) [BQ-123]", "values": [{"measurement": "IC50", "setting": "Endothelin-1 receptor [3]", "value": 22, "unit": "nM"}]}
